The test system of one experiment is MCF7. In words: Cytotoxicity on MCF7 monolayers (MTT assay). Conditions: Homo sapiens, MCF7, 72 h, read-out: Mean of % cytotoxicity ± SD.
For a further experiment, the system named is MCF7 3D spheroids. Kind of experiment: Cytotoxicity on MCF7 3D multicellular spheroids (acid phosphatase method). The note with it: Homo sapiens; for cytotoxicity at 50 µM: MCF7, 120 h, read-out: Mean of % cytotoxicity ± S.D.

The record followed here is PMC12663132, “Assessment of cytotoxicity of some synthetic compounds against breast carcinoma spheroids with subsequent analysis of pro-apoptotic and gene expression” (Scientific Reports, 2025).

Each structure is given as a SMILES string. Where a name gives a salt, the structure may show the parent alone.

As usually defined, the inhibition is the drop in the measured response relative to a control, in per cent.

Protocol for MCF7 3D spheroids: Eighty pre-plated synthetic chemical compounds were screened on two human cell lines: MCF7 (ATCC® HTB-22™), a Caucasian breast adenocarcinoma model, and hTERT-RPE-1 (ATCC® CRL-4000™), a normal retinal epithelial cell line immortalized by hTERT telomerase. […] The cells were cultured in DMEM-F12 medium supplemented with L-glutamine and 10% fetal bovine serum, all were purchase from Biowest (Biotechnology company in Nuaillé, France), and maintained in a controlled incubator environment set at 37 °C with 5% CO2 and 95% humidity.
3-D spheroid models were generated from MCF7 cancer and hTERT-RPE1 normal cells were seeded at 10,000 and 50,000 cells/well, respectively, in poly-HEMA coated round bottom plates according to the protocol previously mentioned[44]. The cells were incubated for 5 days to generate the spheroids with diameter of 500 ± 20 µm. The spheroids were imaged using Olympus S100, U-CMAD3 camera connected to Olympus inverted microscope and the diameter of the spheroids was measured using Cellscen-Entry software. Test compounds were added in triplicate to a final concentration of 50 µM and were incubated for 120 h. […] At the end of incubation, cytotoxicity was determined using the acid phosphatase method[45]. After washing twice with 250 μL PBS buffer, 100 μL of 0.1 M sodium citrate, 0.1% Triton X-100, p-nitrophenylphosphate (2 mg/ml) (Pierce Biotechnology Inc., Rockford, IL) was added to each well and incubated for 1.5 h at 37 °C. After incubation, 10 μL of 1N NaOH stop solution was added to each well, and absorbance was read at 405 nm. Cytotoxicity was calculated according to the following equation:

Regarding `COc1cc(-n2c(SC)nc3ccccc3c2=O)c(OC)cc1Cl` [A02, 3-(4-chloro-2,5-dimethoxyphenyl)-2-(methylthio)-3,4-dihydroquinazolin-4-one], the cytotoxicity at 50 µM with MCF7 came to 94.3 ± 0.06%; with MCF7 3D spheroids it was 67.1 ± 3.3%.
With `Cc1nn(-c2ccccc2)nc1C(=O)Nc1cc(Cl)cc(Cl)c1` [A03, N4-(3,5-dichlorophenyl)-5-methyl-2-phenyl-2H-1,2,3-triazole-4-carboxamide], the cytotoxicity at 50 µM in the experiment on MCF7 was 94.2 ± 0.65%; with MCF7 3D spheroids it was 39.1 ± 0.24%.
With `O=[N+]([O-])c1ccc(N2CCC(n3cccc3)CC2)cc1` [A04, 1-(4-nitrophenyl)-4-(1H-pyrrol-1-yl)piperidine], the cytotoxicity at 50 µM in the experiment on MCF7 was determined as 2.5 ± 0.35%; with MCF7 3D spheroids, 43.1 ± 0.23%.
Turning to `CCOC(=O)c1cnn(C(=O)c2snnc2C)c1N` [A05, Ethyl 5-amino-1-[(4-methyl-1,2,3-thiadiazol-5-yl)carbonyl]-1H-pyrazole-4-carboxylate], the cytotoxicity at 50 µM in the experiment on MCF7 was determined as 62.3 ± 2.5%; in the experiment on MCF7 3D spheroids, 49 ± 0.8%.
As to `Nc1ccc(-c2ccc(N)c([N+](=O)[O-])c2)cc1[N+](=O)[O-]` [A06, 3,3'-dinitro[1,1'-biphenyl]-4,4'-diamine], the cytotoxicity at 50 µM came to 82.4 ± 0.41% with MCF7 and 60.8 ± 1% in the experiment with MCF7 3D spheroids.
As for `O=C(O)c1nccnc1C(=O)Nc1ccccc1N1CCOCC1` [A08, 3-[(2-morpholinoanilino)carbonyl]-2-pyrazinecarboxylic acid], the cytotoxicity at 50 µM in the experiment with MCF7 was 17.2 ± 1%; in the experiment on MCF7 3D spheroids, 49.3 ± 0.53%.
The like results for `O=C(Nc1cc(-c2ccccc2)n[nH]1)C1COc2ccccc2O1` (stereo not shown) [A09, N2-(3-phenyl-1H-pyrazol-5-yl)-2,3-dihydro-1,4-benzodioxine-2-carboxamide] were, in that order, 100 ± 0.003% and 52.2 ± 1.9%.
The corresponding values for `CCCS(=O)(=O)c1cscc1NC(=O)c1c(-c2c(F)cccc2Cl)noc1C` [A10, N4-[4-(propylsulfonyl)-3-thienyl]-3-(2-chloro-6-fluorophenyl)-5-methylisoxazole-4-carboxamide] are 53.8 ± 4.9% and 68.6 ± 1.1%.
As to `Clc1ccc(CSc2ncnc3c2sc2nnc(-c4ccccc4)c(-c4ccccc4)c23)cc1` [A11, 8-[(4-chlorobenzyl)sulfanyl]-3,4-diphenylpyrimido [4',5':4,5]thieno[2,3-c]pyridazine], the cytotoxicity at 50 µM amounted to 44.2 ± 1.6% in the experiment on MCF7 and 46.4 ± 1.3% in the experiment on MCF7 3D spheroids.
As for `CCOC(=O)c1ccc(-n2c(=S)[nH]c3ccccc32)cc1` [B02, ethyl 4-(2-thioxo-2,3-dihydro-1H-benzimidazol-1-yl)benzoate], the cytotoxicity at 50 µM worked out at 100 ± 0.003% in the experiment with MCF7 and 35.7 ± 1.8% in the experiment on MCF7 3D spheroids.
As for `O=C(NCCc1ccncc1)C(F)(F)F` [B03, N1-[2-(4-pyridyl)ethyl]-2,2,2-trifluoroacetamide], the cytotoxicity at 50 µM was found to be 0% with MCF7 and 25.5 ± 0.11% with MCF7 3D spheroids.
As for `Cc1ncc(CO)c(C=NO)c1O` [B04, 3-hydroxy-5-(hydroxymethyl)-2-methylisonicotinaldehyde oxime], the figures for the cytotoxicity at 50 µM in the experiment on MCF7 and with MCF7 3D spheroids were -58.5 ± 0.003% and 49.3 ± 0.35%, respectively.
Take `COC(=O)C(C#N)=Cc1cccn1-c1ccc(C(F)(F)F)cc1` [B05, methyl 2-cyano-3-{1-[4-(trifluoromethyl)phenyl]-1H-pyrrol-2-yl}acrylate]: the cytotoxicity at 50 µM in the experiment on MCF7 came to 91.3 ± 0.6%; with MCF7 3D spheroids, 42.1 ± 1.9%.
As for `CC(=O)Cc1nsc(Nc2ccccc2)n1` [B06, 1-(5-anilino-1,2,4-thiadiazol-3-yl)acetone], the results for the cytotoxicity at 50 µM in the experiment with MCF7 and in the experiment on MCF7 3D spheroids were 14.8 ± 2.6% and 20.4 ± 0.35%, respectively.
Regarding `CC(C)=NOC(=O)c1scc(S(C)(=O)=O)c1Cl` [B07, 3-chloro-2-({[(1methylethylidene)amino]oxy}carbonyl)-4-(methylsulfonyl)thiophene], the cytotoxicity at 50 µM in the experiment with MCF7 came to 0%; with MCF7 3D spheroids it was 34.9 ± 1.7%.
Consider `c1cc2c(cc1N=C1SCC3CCCCN13)OCO2` (stereo not shown) [B08, N-hexahydro[1,3]thiazolo[3,4-a]pyridin-3-ylidene-1,3-benzodioxol-5-amine], for which the cytotoxicity at 50 µM in the experiment with MCF7 was 8.5 ± 0.47%; in the experiment on MCF7 3D spheroids, 53.1 ± 0.6%.
`O=C1NC(=O)C(=Cc2ccncc2)C(=O)N1` [B09, 5-(4-pyridylmethylidene)hexahydropyrimidine-2,4,6-trione]: the cytotoxicity at 50 µM was 12.3 ± 0.7% with MCF7 and 59.2 ± 1.2% with MCF7 3D spheroids.
The corresponding values for `NNC(=O)Cc1ccccc1` [B10, 2-phenylacetohydrazide] are 0% and 48.2 ± 0.23%.
The like results for `O=[N+]([O-])c1cc(C(F)(F)F)ccc1-n1ccc(C(F)(F)F)n1` [B11, 1-[2-nitro-4-(trifluoromethyl)phenyl]-3-(trifluoromethyl)-1H-pyrazole] were, in that order, 0% and 30.5 ± 0.53%.
For `Cn1c(=NN=c2oc3ccccc3n2C)oc2ccccc21` [C03, 1,2-di(3-methyl-2,3-dihydro-1,3-benzoxazol-2-yliden)hydrazine], the cytotoxicity at 50 µM in the experiment on MCF7 was found to be 86.6 ± 9.3%; with MCF7 3D spheroids, 3.4 ± 0.17%.
Turning to `Cn1ccnc1SCC(=O)Nc1ccc(C(C)(C)C)cc1` [C04, N1-[4-(tert-butyl)phenyl]-2-[(1-methyl-1H-imidazol-2-yl)thio]acetamide], the figures for the cytotoxicity at 50 µM in the experiment on MCF7 and in the experiment on MCF7 3D spheroids were 14.5 ± 0.58% and 28.6 ± 0.76%, respectively.
For the compound `C(=Cc1ccco1)C1=NN(Cc2ccccc2)CC1` [C05, 1-benzyl-3-[2-(2-furyl)vinyl]-4,5-dihydro-1H-pyrazole hydrochloride], the cytotoxicity at 50 µM in the experiment on MCF7 was determined as 62.9 ± 3.8%; with MCF7 3D spheroids it was 48.6 ± 2%.
With `COc1ccc(C(=O)NCc2ccco2)cc1OC` [C06, N-(2-furylmethyl)-3,4-dimethoxybenzamide], the cytotoxicity at 50 µM in the experiment with MCF7 is 0%; in the experiment on MCF7 3D spheroids, 35.8 ± 0.23%.
Turning to `Cc1cc(C)n(-c2ccc(S(N)(=O)=O)cc2)n1` [C07, 4-(3,5-dimethyl-1H-pyrazol-1-yl)benzene-1-sulfonamide], the cytotoxicity at 50 µM was found to be 0% with MCF7 and 55.4 ± 2.3% in the experiment with MCF7 3D spheroids.
On to `CC(=O)c1ccccc1OC(=O)c1ccc([N+](=O)[O-])o1` [C08, 2-acetylphenyl 5-nitro-2-furoate], for which the cytotoxicity at 50 µM with MCF7 amounted to 66.3 ± 4.3%; in the experiment on MCF7 3D spheroids, 30.8 ± 1.3%.
Take `CC(=O)Nc1ccc(NC(=O)c2nccnc2C(=O)O)cn1` [C09, 3-({[6-(acetylamino)-3-pyridinyl]amino}carbonyl)-2-pyrazinecarboxylic acid]: the cytotoxicity at 50 µM was 9.9 ± 1.1% in the experiment with MCF7 and -23.4 ± 0.5% in the experiment on MCF7 3D spheroids. Also, the inhibition at 50 µM in the experiment with MCF7 3D spheroids (MCF7, read-out: % inhibition 3D) is -23%.
On to `O=C(SCc1cccc(C(F)(F)F)c1)c1ccc(Cl)c(Cl)c1` [C10, S-[3-(trifluoromethyl)benzyl] 3,4-dichlorobenzene carbothioate], for which the figures for the cytotoxicity at 50 µM in the experiment with MCF7 and in the experiment on MCF7 3D spheroids were 100 ± 0.003% and 33.8 ± 1.6%, respectively.
Turning to `O=C(NNC(=O)c1ccc(OC(F)(F)F)cc1)c1ccc(Cl)cc1` [C11, N'1-(4-chlorobenzoyl)-4-(trifluoromethoxy)benzene-1-carbohydrazide], the figures for the cytotoxicity at 50 µM in the experiment on MCF7 and with MCF7 3D spheroids were 83.1 ± 1.17% and 66.5 ± 0.24%, respectively.
Turning to `O=[N+]([O-])c1ccc2nc(-c3ccccc3)c(-c3ccccc3)nc2c1` [D02, 6-nitro-2,3-diphenylquinoxaline], the cytotoxicity at 50 µM is 5.2 ± 0.18% in the experiment with MCF7 and -8 ± 0.003% in the experiment on MCF7 3D spheroids.
On to `O=C(Nc1cccc(-c2ncon2)c1)C(Cl)(Cl)Cl` [D03, 2,2,2-trichloro-N-[3-(1,2,4-oxadiazol-3-yl)phenyl]acetamide], for which the cytotoxicity at 50 µM amounted to 11.1 ± 0.9% with MCF7 and 23.5 ± 0.17% in the experiment on MCF7 3D spheroids.
With `Cc1c(C)c(C)c2[nH]c(-c3ccc4c(c3)OCO4)nc2c1C` [D04, 2-(1,3-benzodioxol-5-yl)-4,5,6,7-tetramethyl-1H-benzimidazole], the figures for the cytotoxicity at 50 µM in the experiment on MCF7 and in the experiment with MCF7 3D spheroids were 100 ± 0.003% and 67.9 ± 0.5%, respectively.
Consider `CC(=O)Nc1ccc(-c2ccccc2)cc1` [D05, N-[1,1'-biphenyl]-4-ylacetamide], for which the cytotoxicity at 50 µM amounted to 49.7 ± 4.1% in the experiment with MCF7 and 50.9 ± 2.4% with MCF7 3D spheroids.
As for `COc1c(Cl)cc([N+](=O)[O-])c(OC)c1C(=O)O` [D06, 3-chloro-2,6-dimethoxy-5-nitrobenzoic acid], the cytotoxicity at 50 µM is 10.4 ± 0.6% in the experiment with MCF7 and 40.8 ± 2.1% with MCF7 3D spheroids.
As to `COc1cc(-n2c(S)nnc2CCc2nc(-c3ccc(Cl)cc3)no2)c(OC)cc1Cl` [D07, 4-(4-chloro-2,5-dimethoxyphenyl)-5-{2-[3-(4-chlorophenyl)-1,2,4-oxadiazol-5-yl]ethyl}-4H-1,2,4-triazole-3-thiol], the cytotoxicity at 50 µM in the experiment with MCF7 amounted to 88.7 ± 0.23%; with MCF7 3D spheroids it was 50.1 ± 2.3%.
Take `Cc1ccc(OCC(O)CN2CCC(C(N)=O)CC2)c([N+](=O)[O-])c1` (stereo not shown) [D09, 1-[2-hydroxy-3-(4-methyl-2-nitrophenoxy)propyl]piperidine-4-carboxamide]: the cytotoxicity at 50 µM in the experiment on MCF7 was 7.6 ± 0.2%; with MCF7 3D spheroids, 50 ± 0.35%.
Take `COc1ccc(NNC(=O)c2c(-c3c(F)cccc3Cl)noc2C)cc1` [D10, 3-(2-chloro-6-fluorophenyl)-N'-(4-methoxyphenyl)-5-methyl-4-isoxazolecarbohydrazide]: the cytotoxicity at 50 µM was found to be 52.1 ± 2.11% in the experiment with MCF7 and 51.7 ± 1.1% in the experiment with MCF7 3D spheroids.
The corresponding values for `CCCc1cc(=O)oc2cc(OC(C)C(=O)NNS(=O)(=O)c3cccc(C(F)(F)F)c3)ccc12` (stereo not shown) [D11, N'1-{2-[(2-oxo-4-propyl-2H-chromen-7-yl)oxy]propanoyl}-3-(trifluoromethyl)benzene-1-sulfonohydrazide] are 35.5 ± 0.35% and 40.6 ± 0.11%.
Regarding `COc1cccc2c1C(=O)c1c(O)c3c(c(O)c1C2=O)C[C@@](O)(C(=O)CO)C[C@@H]3O[C@H]1C[C@H](N)[C@H](O)[C@H](C)O1` [doxorubicin, reference compound], the cytotoxicity at 50 µM with MCF7 was 57.6 ± 2.1%.
